pIC50: −log10 of the molar value. Read-outs that look alike come from different tables or passages of the source.
Target: T1, GST-YTHDF2 (Homo sapiens, UniProt Q9Y5A9)
T1 construct: made in house
T1 sequence (Q9Y5A9 1-579): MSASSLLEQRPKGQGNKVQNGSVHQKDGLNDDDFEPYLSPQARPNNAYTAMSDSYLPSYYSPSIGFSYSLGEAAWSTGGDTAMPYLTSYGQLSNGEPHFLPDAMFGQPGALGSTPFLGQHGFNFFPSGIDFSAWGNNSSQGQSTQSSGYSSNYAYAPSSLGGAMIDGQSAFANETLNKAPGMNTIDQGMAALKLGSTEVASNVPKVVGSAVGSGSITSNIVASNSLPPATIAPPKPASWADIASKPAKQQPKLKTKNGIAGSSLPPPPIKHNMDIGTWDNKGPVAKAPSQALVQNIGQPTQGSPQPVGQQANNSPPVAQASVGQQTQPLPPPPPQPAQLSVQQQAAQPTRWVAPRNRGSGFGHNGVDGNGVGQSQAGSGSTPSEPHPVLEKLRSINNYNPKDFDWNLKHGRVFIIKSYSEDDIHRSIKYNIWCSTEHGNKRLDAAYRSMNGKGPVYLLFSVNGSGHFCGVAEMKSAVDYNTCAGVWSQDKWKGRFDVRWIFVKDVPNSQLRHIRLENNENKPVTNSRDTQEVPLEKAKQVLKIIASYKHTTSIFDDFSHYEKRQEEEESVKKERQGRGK
Test: HTRF-based binding assay, competition with m6A-oligoRNA, DF2
Conditions: for Residual signal at 1 mM concentration / % at 100 µM: HTRF; for Residual signal at 1 mM concentration: 1 mM compound, relative to control, average of two technical replicates, * = interference with the assay; for % at 100 µM: 100 µM compound; for LE (ligand efficiency, DF2): LE = -RT ln IC50/HAC from HTRF IC50

[1] = dose-response, competitor m6A-oligoRNA, read-out: DF2 IC50 (HTRF assay)

Row | Compound | Residual signal at 1 mM concentration [%] | other results
1 | FC(F)(F)c1cc(-c2ccc3ccccc3c2)n[nH]1 [Compound S31] | > 90 | –
2 | Cc1cc(O)c(OCC(=O)N=c2[nH]cc(C)s2)cn1 [Compound S6] | 60 | –
3 | C=CCc1cccc(C=Nc2c[nH]c(=O)[nH]c2=O)c1O [Compound S18] | 79 | –
4 | COc1cccc2c1OCc1sc3[nH]c(=S)[nH]c(=O)c3c1-2 [Compound S73] | 64 | % at 100 µM: 22%
5 | NC(=O)c1cccnc1NCC1CC1 [Compound S39] | > 90 | –
6 | COc1cccc(-c2ccc3c(N)n[nH]c3n2)c1 [Compound S30] | > 90 | –
7 | CC(=O)N=c1[nH]nc(SCC(=O)NC2CCCCC2)s1 [Compound S10] | 50 | –
8 | CCCc1nnc(NC(C)=O)s1 [Compound S26] | > 90 | –
9 | Cc1cccc(NC=C2C(=O)NC(=S)NC2=O)n1 [Compound 9] | – | pIC50: 4.52; LE (ligand efficiency, DF2): 0.34 kcal/(mol HAC)
10 | CNC=C1C(=O)NC(=S)NC1=O [Compound S47] | – | pIC50 [1]: 4.04
11 | Nn1c(=S)[nH]c2sccc2c1=O [Compound S67] | 23 | % at 100 µM: 40%
12 | Cc1cc(=O)c2sccc2[nH]1 [Compound S22] | 89 | –
13 | Nn1c(=S)[nH]c2scc(-c3ccccc3)c2c1=O [Compound S68] | 36 | % at 100 µM: 32%
14 | O=c1[nH]c(=S)[nH]c2sc3c(c12)CCC3 [Compound S59] | 35 | pIC50 [1]: 4.28
15 | O=c1[nH]c(=S)[nH]c2[nH]ccc12 [Compound S63] | 28 | % at 100 µM: 49%
16 | CN(NC=C1C(=O)NC(=S)NC1=O)c1ccccc1 [Compound S49] | 54 | –
17 | CNc1ncnc2[nH]nc(C)c12 [Compound S57] | 88 | –
18 | CNc1ncccc1C(N)=O [Compound 5] | 88 | –
19 | CC=CC=C1C(=O)NC(=S)NC1=O [Compound 1] | 26 | pIC50: 4.72; LE (ligand efficiency, DF2): 0.50 kcal/(mol HAC)
20 | O=C(Nc1nnc[nH]1)C1CC1 [Compound S24] | > 90 | –
21 | CCOc1ccc(C=C2C(=O)NC(=S)NC2=O)cc1Cl [Compound S52] | 12 | LE (ligand efficiency, DF2): 0.29 kcal/(mol HAC); pIC50 [1]: 4.26
22 | Cc1ccccc1NN=C1C(=O)NC(=S)NC1=O [Compound 2] | 12 | pIC50: 3.77; LE (ligand efficiency, DF2): 0.29 kcal/(mol HAC)
23 | O=c1[nH]c(=O)c2ccsc2[nH]1 [Compound S61] | – | pIC50 [1]: 3.54
24 | Cc1nc(O)c2sccc2n1 [Compound S27] | > 90 | –

Row | Compound | Residual signal at 1 mM concentration [%] | other results
25 | O=C(CCc1n[nH]c(=S)[nH]c1=O)Nc1ccccc1 [Compound S55] | – | pIC50 [1]: 3.72
26 | CCSc1nnc(NC(C)=O)s1 [Compound S7] | 60 | –
27 | CC(O)c1nc2cc(-c3cc(F)cc(Cl)c3)ccc2[nH]1 (centres unmarked) [Compound S25] | > 90 | –
28 | O=c1cc(O)cc(C(F)(F)F)[nH]1 [Compound S33] | > 90 | –
29 | CCNc1cc(=O)[nH]c(=O)[nH]1 [Compound S56] | 51 | –
30 | Cc1n[nH]c(N)c1C#N [Compound S36] | > 90 | –
31 | CCc1cc(NC(=O)c2ccc(C)nc2)[nH]n1 [Compound S34] | > 90 | –
32 | Cc1nnc(N)n(N)c1=O [Compound S32] | > 90 | –
33 | COc1cc2[nH]c(=O)[nH]c(=O)c2cc1OC [Compound S12] | 60 | –
34 | COc1ccc(C=C2C(=O)NC(=S)NC2=O)cc1C [Compound 10] | 48 | pIC50: 4.55; LE (ligand efficiency, DF2): 0.33 kcal/(mol HAC)
35 | Cc1cc(O)nc(NC=C2C(=O)NC(=S)NC2=O)n1 [Compound S50] | 9 | pIC50 [1]: 4.24
36 | CNc1cc(=O)[nH]c(=O)[nH]1 [Compound 4] | 18 | LE (ligand efficiency, DF2): 0.49 kcal/(mol HAC); pIC50 [1]: 3.60
37 | O=c1[nH]c(=S)[nH]c2cnccc12 [Compound S62] | – | pIC50 [1]: 3.77
38 | O=c1cn[nH]c(=S)[nH]1 [Compound 13] | 5 | LE (ligand efficiency, DF2): 0.73 kcal/(mol HAC); pIC50 [1]: 4.28
39 | O=c1[nH]c(=O)c2cn[nH]c2[nH]1 [Compound S58] | 47 | –
40 | O=c1[nH]c(=S)[nH]c2ccsc12 [Compound S64] | – | % at 100 µM: 36%
41 | CCc1cc2c(=O)[nH]c(SC)nc2s1 [Compound S65] | – | % at 100 µM: 68%
42 | COC(=O)CNC(=O)COc1c[nH]c(C)cc1=O [Compound S15] | 75 | –
43 | O=C(Nc1nccs1)C(F)(F)F [Compound S20] | 87 | –
44 | Cc1[nH]nc2ncnc(N)c12 [Compound 6] | 80 | –
45 | CC1(C)C(=O)NC(=S)NC1=O [Compound S43] | 11 | –
46 | CCOC(=O)c1noc(C)n1 [Compound S28] | > 90 | –
47 | Cn1cccc1C=C1C(=O)NC(=S)NC1=O [Compound S46] | 13 | –
48 | N#Cc1c(C2CC2)n[nH]c1N [Compound S37] | > 90 | –

Row | Compound | Residual signal at 1 mM concentration [%] | other results
49 | O=c1[nH]c(=S)[nH]c2n[nH]cc12 [Compound 15] | 17 | LE (ligand efficiency, DF2): 0.51 kcal/(mol HAC); pIC50 [1]: 4.07
50 | CC(=O)Nc1nnc(C=Cc2cccc([N+](=O)[O-])c2)s1 (mixture of isomers) [Compound S17] | 77 | –
51 | COc1ccc(NC=C2C(=O)NC(=O)NC2=O)cc1 [Compound 12] | – | pIC50: 4.40; LE (ligand efficiency, DF2): 0.32 kcal/(mol HAC)
52 | COc1cnc(Br)cc1O [Compound S29] | > 90 | –
53 | Cc1cc(=O)c(OCc2ccc(F)cc2)c[nH]1 [Compound S1] | 31 | pIC50 [1]: 3.51
54 | Cc1nc(O)c(C=Nc2ccc(Cl)cc2)c(O)n1 [Compound S8] | 21 | –
55 | CN(C)c1ccc(C=C2C(=O)NC(=S)NC2=O)cc1 [Compound 7] | – | pIC50: 4.68; LE (ligand efficiency, DF2): 0.34 kcal/(mol HAC)
56 | NCCC1C(=O)NC(=S)NC1=O [Compound S42] | – | pIC50 [1]: 3.48
57 | CC=CC=C1C(=O)NC(=O)NC1=O [Compound 11] | 30 | pIC50: 4.54; LE (ligand efficiency, DF2): 0.48 kcal/(mol HAC)
58 | CN1C(=O)CC(=O)NC1=S [Compound S45] | 75 | –
59 | O=C1NC(=S)NC(=O)C1=NNc1cccc(C(=O)O)c1 [Compound 8] | 5 | pIC50: 5.22; LE (ligand efficiency, DF2): 0.36 kcal/(mol HAC)
60 | O=c1[nH]c(=S)[nH]c2nc[nH]c12 [Compound 16] | 2 | LE (ligand efficiency, DF2): 0.56 kcal/(mol HAC); pIC50 [1]: 4.52
61 | Cc1cc(O)c2[nH]ncc2n1 [Compound S13] | 62 | –
62 | OCCNc1ccc(Cl)nn1 [Compound S23] | > 90 | –
63 | Oc1ccnc(OC(F)F)c1 [Compound S21] | 87 | –
64 | CN(C)c1ccc(C=C2C(=O)NC(=S)NC2=O)o1 [Compound S51] | 35 | –
65 | CN(C)c1cc(=O)[nH]c(=O)[nH]1 [Compound S19] | 85 | –
66 | Cc1cc2c(=O)n(C3CC3)c(=S)[nH]c2s1 [Compound S66] | 23 | % at 100 µM: 25%
67 | O=C1CC(=O)NC(=S)N1 [Compound S44] | 79 | –
68 | CCN1CCc2c(sc3[nH]c(=S)n(N)c(=O)c23)C1 [Compound S69] | – | pIC50 [1]: 4.64
69 | CC1CCc2c(sc3[nH]c(=S)[nH]c(=O)c23)C1 (centres unmarked) [Compound S60] | 24 | pIC50 [1]: 4.10
70 | O=c1[nH]c(=S)[nH]c2scc(-c3cccs3)c12 [Compound S70] | 49 | % at 100 µM: 45%
71 | Cc1n[nH]c(=S)[nH]c1=O [Compound S53] | 38 | –
